23 molecules from ChEMBL document CHEMBL5230082, “Recent advances in steroid amino acid conjugates: Old scaffolds with new dimensions” (Eur J Med Chem, 2020) can be followed below.

Assay [1] deals with MDA-MB-231. The experiment in a line: Anticancer activity against human MDA-MB-231 cells assessed as growth inhibition. It counts as functional.
Assay [2] in a line: Anticancer activity against human U-87 MG cells assessed as growth inhibition. In kind it is functional, U-87MG ATCC.
Assay [3] deals with HeLa. The experiment in a line: Cytotoxicity against human HeLa cells assessed as reduction in cell viability. It counts as functional, cell-based.
In assay [4] the test system is Rattus norvegicus. Put plainly: Antiarrhythmic activity in pentobarbital anesthetized rat model assessed as ventricular fibrillation at 10 mg/kg, iv relative to control. It counts as functional.
In assay [5] the test system is Rattus norvegicus. Put plainly: Antiarrhythmic activity in pentobarbital anesthetized rat model assessed as number of ventricular ectopics at 10 mg/kg, iv. It counts as functional.
Assay [6] relates to Candida albicans. Put plainly: Antifungal activity against Candida albicans assessed as zone of inhibition at 100 ug per disc. In kind it is functional. The settings on record: read-out: DIZ.
For assay [7], the system named is Cladosporium cucumerinum. The experiment in a line: Antifungal activity against Cladosporium cucumerinum assessed as zone of inhibition at 60 ug per disc. In kind it is functional. Conditions: read-out: DIZ.
For assay [8], the system named is Cladosporium cucumerinum. The experiment in a line: Antifungal activity against Cladosporium cucumerinum assessed as zone of inhibition at 30 ug per disc. In kind it is functional. Conditions: read-out: DIZ.
Assay [9] relates to Salmonella typhimurium. The experiment in a line: Antibacterial activity against Salmonella enterica subsp. enterica serovar Typhimurium. In kind it is functional.
The subject of assay [10] is Streptococcus pneumoniae. The experiment in a line: Antibacterial activity against Streptococcus pneumoniae. It counts as functional.
Assay [11] relates to Bacillus subtilis. The experiment in a line: Antibacterial activity against Bacillus subtilis. In kind it is functional.
Assay [12] relates to Acinetobacter baumannii. Put plainly: Antibacterial activity against Acinetobacter baumannii. It counts as functional.
The subject of assay [13] is Staphylococcus aureus. The experiment in a line: Antibacterial activity against Staphylococcus aureus. It counts as functional.
In assay [14] the test system is Pseudomonas aeruginosa. The experiment in a line: Antibacterial activity against Pseudomonas aeruginosa. In kind it is functional.
The test system of assay [15] is Klebsiella pneumoniae. The experiment in a line: Antibacterial activity against Klebsiella pneumoniae. It counts as functional.
For assay [16], the system named is Streptococcus oralis. The experiment in a line: Antibacterial activity against Streptococcus oralis. It counts as functional.
Assay [17] has as its system Escherichia coli. Put plainly: Antibacterial activity against Escherichia coli. It counts as functional.
The test system of assay [18] is Shigella flexneri. The experiment in a line: Antibacterial activity against Shigella flexneri. It counts as functional.
For assay [19], the system named is Staphylococcus aureus. The experiment in a line: Antibacterial activity against Staphylococcus aureus assessed as bacterial growth inhibition per disk. In kind it is functional.
Assay [20] concerns Globisporangium ultimum. The experiment in a line: Antifungal activity against Globisporangium ultimum assessed as fungal growth inhibition per disk. It counts as functional.
For assay [21], the system named is Candida albicans. Put plainly: Antifungal activity against Candida albicans assessed as fungal growth inhibition per disk. In kind it is functional.
A short description of assay [22]: Cytotoxicity against human A2780cis cells assessed as reduction in cell viability incubated for 72 hrs. It counts as functional, cell-based.
Assay [23] deals with Integrin alpha-M/beta-2 (Homo sapiens, UniProt P05107+P11215). Put plainly: Antagonist activity at integrin CD11B/CD18 (unknown origin). In kind it is protein-complex assay.
Sequence of Integrin alpha-M/beta-2 (P05107 23-769 limits assumed, other chains not shown): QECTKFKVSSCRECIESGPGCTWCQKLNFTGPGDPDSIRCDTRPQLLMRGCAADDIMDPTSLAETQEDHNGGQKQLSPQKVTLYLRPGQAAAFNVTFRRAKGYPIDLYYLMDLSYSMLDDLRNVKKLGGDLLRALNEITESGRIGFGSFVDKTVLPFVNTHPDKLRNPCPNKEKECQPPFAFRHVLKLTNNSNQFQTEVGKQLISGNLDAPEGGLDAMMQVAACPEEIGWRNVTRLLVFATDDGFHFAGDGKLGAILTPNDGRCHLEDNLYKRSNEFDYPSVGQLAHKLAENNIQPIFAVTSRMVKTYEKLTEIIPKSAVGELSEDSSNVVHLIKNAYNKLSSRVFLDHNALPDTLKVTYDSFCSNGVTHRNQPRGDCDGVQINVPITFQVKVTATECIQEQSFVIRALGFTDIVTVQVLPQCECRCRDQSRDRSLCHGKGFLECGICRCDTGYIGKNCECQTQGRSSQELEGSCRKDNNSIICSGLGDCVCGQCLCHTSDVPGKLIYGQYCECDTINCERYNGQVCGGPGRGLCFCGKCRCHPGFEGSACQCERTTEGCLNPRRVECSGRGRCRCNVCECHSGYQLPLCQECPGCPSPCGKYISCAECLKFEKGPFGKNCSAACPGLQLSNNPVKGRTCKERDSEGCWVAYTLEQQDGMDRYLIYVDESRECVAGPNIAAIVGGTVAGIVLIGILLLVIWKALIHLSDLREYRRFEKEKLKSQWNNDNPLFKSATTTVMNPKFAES
A short description of assay [24]: Inhibition of Sialyltransferase (unknown origin). On the set-up: species or system Homo sapiens.
Assay [25] relates to Rattus norvegicus. The experiment in a line: Antiarrhythmic activity in pentobarbital anesthetized rat model assessed as death rate at 10 mg/kg, iv relative to control. It counts as functional.
Assay [26] deals with Staphylococcus aureus. Put plainly: Antibacterial activity against methicillin-resistant Staphylococcus aureus. It counts as functional.
For assay [27], the system named is SH-SY5Y. The experiment in a line: Neuroprotective activity against H2O2-induced human SH-SY5Y cell injury by MTT assay relative to control. It counts as functional. (Tetrazolium dyes change colour on reduction, which living cells bring about.)
The target of assay [28] is Human immunodeficiency virus type 1 protease (Human immunodeficiency virus 1, UniProt Q72874). The experiment in a line: Inhibition of HIV-1 protease assessed as inhibition.
Assay [29] concerns the target Ephrin type-A receptor 2/Ephrin-A1 (Homo sapiens, UniProt P20827+P29317). The experiment in a line: Inhibition of EPhA2-ephrin-A1 (unknown origin) protein-protein interaction. In kind it is protein assay.

In brackets after ≈: the same amount, converted by molar mass.

Sequence of Ephrin type-A receptor 2/Ephrin-A1 (P29317 whole entry): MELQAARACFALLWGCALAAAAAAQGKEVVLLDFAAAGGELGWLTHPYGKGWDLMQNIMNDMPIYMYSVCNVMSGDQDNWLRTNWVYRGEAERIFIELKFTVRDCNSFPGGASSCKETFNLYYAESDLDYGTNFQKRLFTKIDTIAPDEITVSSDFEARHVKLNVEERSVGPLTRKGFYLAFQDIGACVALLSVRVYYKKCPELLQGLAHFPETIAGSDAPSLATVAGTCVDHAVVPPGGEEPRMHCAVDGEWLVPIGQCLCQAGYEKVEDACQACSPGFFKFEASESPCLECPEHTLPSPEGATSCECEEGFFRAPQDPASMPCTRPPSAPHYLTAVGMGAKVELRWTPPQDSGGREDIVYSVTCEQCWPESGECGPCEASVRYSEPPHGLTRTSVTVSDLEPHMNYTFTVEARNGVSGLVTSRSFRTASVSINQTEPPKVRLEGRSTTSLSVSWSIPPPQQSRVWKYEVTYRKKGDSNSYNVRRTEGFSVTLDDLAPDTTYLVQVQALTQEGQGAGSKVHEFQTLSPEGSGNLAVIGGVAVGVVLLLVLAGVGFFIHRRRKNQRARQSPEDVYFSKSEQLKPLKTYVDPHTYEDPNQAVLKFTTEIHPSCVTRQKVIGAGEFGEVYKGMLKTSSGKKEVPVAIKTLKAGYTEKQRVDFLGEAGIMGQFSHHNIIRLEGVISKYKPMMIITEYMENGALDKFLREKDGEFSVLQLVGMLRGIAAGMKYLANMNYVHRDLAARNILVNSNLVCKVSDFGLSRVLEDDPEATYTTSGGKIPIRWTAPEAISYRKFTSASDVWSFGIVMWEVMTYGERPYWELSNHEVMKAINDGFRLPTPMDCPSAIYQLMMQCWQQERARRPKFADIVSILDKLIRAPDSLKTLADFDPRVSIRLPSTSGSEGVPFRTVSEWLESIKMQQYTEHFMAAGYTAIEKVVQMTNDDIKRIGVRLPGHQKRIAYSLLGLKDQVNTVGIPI
Sequence of Ephrin type-A receptor 2/Ephrin-A1 (P20827 whole entry): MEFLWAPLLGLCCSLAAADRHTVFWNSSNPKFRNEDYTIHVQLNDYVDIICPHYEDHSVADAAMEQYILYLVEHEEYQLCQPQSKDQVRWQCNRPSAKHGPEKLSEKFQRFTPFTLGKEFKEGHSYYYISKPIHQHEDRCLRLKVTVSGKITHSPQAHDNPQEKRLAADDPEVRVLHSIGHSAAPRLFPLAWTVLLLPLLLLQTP

In general, GI50 refers to the concentration at which growth is held to half of that of the control. Turning to `Cc1ccc(NC(=O)[C@H](C)NC(=O)CC[C@@H](C)[C@H]2CC[C@H]3[C@@H]4[C@H](O)C[C@@H]5C[C@H](O)CC[C@]5(C)[C@H]4C[C@H](O)[C@]23C)cc1`, the GI50 in assay [1] worked out at 4.52 µM; in assay [2] it was 1.62 µM. The term IC50 denotes the concentration at which inhibition is half-maximal. Consider `CC(C)CCC[C@@H](C)[C@H]1CC[C@H]2[C@@H]3CC=C4C[C@@H](OC(=O)N[C@H](Cc5ccc(OP(=O)(O)O)cc5)C(=O)O)CC[C@]4(C)[C@H]3CC[C@]12C`, for which, in assay [3], the IC50 is 16 µM. As to `CC(C)[C@H](NC(=O)CC[C@@H](C)[C@H]1CC[C@H]2[C@@H]3[C@H](O)C[C@@H]4C[C@H](O)CC[C@]4(C)[C@H]3C[C@H](O)[C@]12C)C(=O)Nc1ccncc1`, in assay [2], the GI50 stood at 2.46 µM.

On to `C[C@]12C[C@H](O)[C@@H](NC(=O)CN)C[C@H]1CC[C@@H]1[C@@H]2CC[C@]2(C)C(=O)CC[C@@H]12`, for which the results for the Activity in assay [4] and in assay [5] were 11% and 172, respectively. Take `C=C(C(=O)N[C@H](C(=O)O)c1ccc(OC)cc1)C(C)CC[C@@H](C)[C@H]1CCC2=C3[C@H](OC)C[C@H]4[C@H](C)[C@@H](OS(=O)(=O)O)CC[C@]4(C)[C@H]3CC[C@@]21C` (stereo not given in full): the zone of inhibition at 100 µg/disc in [6] was 9.8 mm. Moreover, the zone of inhibition at 60 µg/disc in [7] came out at 8 mm. Also, the zone of inhibition at 30 µg/disc in assay [8] stood at 10.1 mm. Take `CC[C@H](C)[C@H](NC(=O)CC[C@@H](C)[C@H]1CC[C@H]2[C@@H]3[C@H](O)C[C@@H]4C[C@H](O)CC[C@]4(C)[C@H]3C[C@H](O)[C@]12C)C(=O)Nc1ccccc1`: the GI50 in assay [1] came to 1.35 µM. By MIC99 is commonly meant an inhibitory concentration at the 99% level, which refers to growth in some studies and to a panel of isolates in others. Lower therefore signals greater potency. On to `CCCCCCOC(=O)CC[C@@H](C)[C@H]1CC[C@H]2[C@@H]3[C@H](OC(=O)CN)C[C@@H]4C[C@H](OC(=O)CN)CC[C@]4(C)[C@H]3C[C@H](OC(=O)CN)[C@]12C`, for which the MIC99 in [9], in assay [12], in assay [14], in assay [15], in [17] and in assay [18] was 4 µM (≈ 2.66 µg/mL) each time. In addition, the MIC in assay [10], in assay [11], in assay [13] and in assay [16] was 4 µM (≈ 2.66 µg/mL) each time.

On to `C=C(C(=O)N[C@H](C(=O)O)c1ccc(OC)cc1)C(C)CC[C@@H](C)[C@H]1CCC2=C3CC[C@H]4[C@H](C)[C@@H](OS(=O)(=O)O)CC[C@]4(C)[C@H]3CC[C@@]21C` (stereo not given in full), for which the MIC in assay [19] is 100 µg; in assay [20], 25 µg; in assay [21], 75 µg. The zone of inhibition at 60 µg/disc in assay [7] is 8 mm. Further, the zone of inhibition at 30 µg/disc in [8] amounted to 10.1 mm.

Regarding `Cc1c(NC(=O)[C@H](C)NC(=O)CC[C@@H](C)[C@H]2CC[C@H]3[C@@H]4[C@H](O)C[C@@H]5C[C@H](O)CC[C@]5(C)[C@H]4C[C@H](O)[C@]23C)c(=O)n(-c2ccccc2)n1C`, the GI50 in assay [2] is 2.49 µM.

In the case of `CC[C@H](C)[C@H](NC(=O)CC[C@@H](C)[C@H]1CC[C@H]2[C@@H]3[C@H](O)C[C@@H]4C[C@H](O)CC[C@]4(C)[C@H]3C[C@H](O)[C@]12C)C(=O)Nc1nc2ccccc2s1`, in [1], the concentration for 50% growth inhibition (GI50) was 1.41 µM. For the molecule `CC(C)CCC[C@@H](C)[C@H]1CC[C@H]2[C@@H]3CC=C4C[C@@H](OC(=O)N[C@H](Cc5ccc(O)cc5)C(=O)O)CC[C@]4(C)[C@H]3CC[C@]12C`, the IC50 in assay [22] was found to be 50 µM. Consider `COc1cccc2c1C(=O)c1c(O)c3c(c(O)c1C2=O)C[C@@](O)(C(=O)CO)C[C@@H]3O[C@H]1C[C@H](N)[C@H](O)[C@H](C)O1` [DOXORUBICIN], for which the results for the GI50 in [1] and in assay [2] were 1 µM and 2.6 µM, respectively. Consider `CC(C)[C@H](N)C(=O)NCC(=O)OO[C@H]1C[C@H]2[C@@H]([C@H](OC(=O)CNC(=O)[C@@H](N)C(C)C)C[C@@H]3C[C@H](OC(=O)CNC(=O)[C@@H](N)C(C)C)CC[C@@]32C)[C@@H]2CC[C@H]([C@H](C)CCC(=O)OCc3ccccc3)[C@@]12C`, for which the results for the MIC in assay [12], in [15] and in assay [17] were 16 µM (≈ 15.7 µg/mL), 16 µM (≈ 15.7 µg/mL) and 8 µM (≈ 7.87 µg/mL), respectively. `CO[C@H]1CC[C@@]2(C)[C@@H](CC[C@H]3[C@@H]2CC[C@@]2(C)[C@H]3C[C@H](C(=O)N[C@@H](CCCNC(=N)N)C(=O)NCC(=O)N[C@@H](CC(=O)O)C(=O)NCc3ccccc3)O[C@]23CCCO3)C1`: the IC50 in [23] came to 10.9 µM. For `CCCP(=O)(OCC)C(Cc1cn(CCC[C@@H](C)[C@H]2CC[C@H]3[C@@H]4CC[C@@H]5C[C@H](O)CC[C@]5(C)[C@H]4CC[C@]23C)nn1)C(=O)O` (stereo not given in full), in assay [24], it took 7 µM to reach half-maximal inhibition (IC50). As for `C[C@]12C[C@H](O)[C@@H](N)C[C@@H]1CC[C@@H]1[C@@H]2CC[C@]2(C)C(=O)CC[C@@H]12` [AMAFOLONE], the figures for the Activity in assay [4], in assay [5] and in assay [25] were 13%, 213 and 0%, respectively. With `CO[C@H]1CC[C@@]2(C)[C@@H](CC[C@H]3[C@@H]2CC[C@@]2(C)[C@H]3C[C@H](C(=O)N[C@@H](CCCNC(=N)N)C(=O)NCC(=O)N[C@@H](CC(=O)O)C(N)=O)O[C@]23CCCO3)C1`, the IC50 in assay [23] turned out to be 6.5 µM.

In turn, `C[C@H](CCCn1cc(CCCC(=O)O)nn1)[C@H]1CC[C@H]2[C@@H]3CC[C@@H]4C[C@H](O)CC[C@]4(C)[C@H]3CC[C@]12C` displayed an IC50 in assay [24] of 5 µM.

In [24], `C[C@H](CCC(=O)O)[C@H]1CC[C@H]2[C@@H]3CC[C@@H]4C[C@H](OC(=O)[C@H](N)CC(=O)O)CC[C@]4(C)[C@H]3CC[C@]12C` returned an IC50 of 6 µM. In assay [26], `COC(=O)CCCN[C@@H]1CC[C@@]2(C)[C@H](C1)C[C@@H](NCCCC(=O)OC)[C@@H]1[C@@H]2CC[C@]2(C)[C@@H]([C@H](C)CCCC(C)C)CC[C@@H]12` had an MIC of 2 µg/mL (≈ 3.32 µM).

For the molecule `COC(=O)[C@H](Cc1ccccc1)NC(=O)[C@@H](C)CC[C@H]1O[C@H]2C[C@H]3[C@@H]4CC[C@@H]5C[C@@H](OC)CC[C@]5(C)[C@H]4CC[C@]3(C)[C@H]2[C@@H]1C`, the Activity in assay [27] turned out to be 102.2%. Consider `C[C@H](CCC(=O)N[C@H](CC(=O)OCc1ccccc1)C(=O)O)[C@H]1CC[C@H]2[C@@H]3[C@H](O)C[C@@H]4C[C@H](O)CC[C@]4(C)[C@H]3C[C@H](O)[C@]12C`, for which the IC50 in assay [28] is 125 µM.

One may read the Ki as the dissociation constant of the complex between target and ligand, obtained from inhibition or displacement. Read a low Ki as tighter binding. In turn, `C[C@H](CCC(=O)O)[C@H]1CC[C@H]2[C@@H]3CC[C@@H]4CCCC[C@]4(C)[C@H]3CC[C@]12C` [URSOCHOLANIC ACID] gave a Ki in assay [29] of 5.1 µM.
